Measured values: BindingDB's records for doi:10.1016/j.bmcl.2008.10.104 (Taisho Pharmaceutical, 2008)
Residues, ends and D or L forms follow the SMILES beside them.

Key:
[1] = molecular target: Sodium- and chloride-dependent glycine transporter 2 (Rattus norvegicus) (UniProt P58295); experiment: Inhibition of [3H]glycine uptake at rat glycine transporter 2 expressed in african green monkey COS7 cells
[2] = molecular target: Sodium- and chloride-dependent glycine transporter 1 (Rattus norvegicus); experiment: Inhibition of [3H]glycine uptake at rat glycine transporter 1 expressed in african green monkey COS7 cells

Sodium- and chloride-dependent glycine transporter 2 (Rattus norvegicus), sequence (P58295 whole entry, looked up): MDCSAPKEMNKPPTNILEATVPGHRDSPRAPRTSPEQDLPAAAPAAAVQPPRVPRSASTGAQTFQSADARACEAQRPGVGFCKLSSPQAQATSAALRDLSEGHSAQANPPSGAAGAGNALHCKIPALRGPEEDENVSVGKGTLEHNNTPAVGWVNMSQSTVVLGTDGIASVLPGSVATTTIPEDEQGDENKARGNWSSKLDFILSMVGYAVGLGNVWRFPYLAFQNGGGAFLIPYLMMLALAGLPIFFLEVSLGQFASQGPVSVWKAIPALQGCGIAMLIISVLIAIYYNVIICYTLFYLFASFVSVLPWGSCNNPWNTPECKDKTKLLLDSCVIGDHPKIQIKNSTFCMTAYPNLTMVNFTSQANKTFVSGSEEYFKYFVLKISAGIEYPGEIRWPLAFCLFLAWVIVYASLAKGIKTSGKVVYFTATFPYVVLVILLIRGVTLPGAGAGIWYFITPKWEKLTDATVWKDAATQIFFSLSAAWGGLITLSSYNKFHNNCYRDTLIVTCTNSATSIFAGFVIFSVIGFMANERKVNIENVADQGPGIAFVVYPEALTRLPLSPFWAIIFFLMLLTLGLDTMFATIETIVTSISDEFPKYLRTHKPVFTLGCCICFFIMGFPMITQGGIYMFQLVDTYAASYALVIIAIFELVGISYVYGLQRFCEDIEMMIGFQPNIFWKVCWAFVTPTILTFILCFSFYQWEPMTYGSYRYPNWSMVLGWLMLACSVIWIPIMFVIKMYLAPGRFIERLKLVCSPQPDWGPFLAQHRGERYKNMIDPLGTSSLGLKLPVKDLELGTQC

IC50 [1] | IC50 [2] | Structure (SMILES)
0.0211 µM | – | N[C@@H](COC(c1cccc(F)c1)c1ccccc1OCc1ccccc1)C(=O)O (stereo partly drawn) [(2S)-2-amino-3-((2-(benzyloxy)phenyl)(3-fluorophenyl)methoxy)propanoic acid]
0.278 µM | 0.003 µM | CC[C@H](C)[C@@H]1NC(=O)[C@H](Cc2ccccc2)NC(=O)[C@H]([C@H](C)[C@@H](C)O)NC(=O)[C@H]([C@@H](C)CC)NC1=O [(3S,6S,9S,12S)-3-benzyl-9,12-di-sec-butyl-6-((2S,3R)-3-hydroxybutan-2-yl)-1,4,7,10-tetraazacyclododecane-2,5,8,11-tetraone]
0.574 µM | 0.0102 µM | CC[C@H](C)[C@@H]1NC(=O)[C@H](Cc2ccccc2)NC(=O)[C@H]([C@H](C)[C@@H](C)O)NC(=O)[C@H](C(C)C)NC1=O [(3S,6S,9S,12S)-3-benzyl-12-sec-butyl-6-((2S,3R)-3-hydroxybutan-2-yl)-9-isopropyl-1,4,7,10-tetraazacyclododecane-2,5,8,11-tetraone]
0.226 µM | – | CC[C@H](C)[C@@H]1NC(=O)[C@H](Cc2ccccc2)NC(=O)[C@H]([C@@H](C)CC)NC(=O)[C@H]([C@@H](C)CC)NC1=O [(3S,6S,9S,12S)-3-benzyl-6,9,12-tri-sec-butyl-1,4,7,10-tetraazacyclododecane-2,5,8,11-tetraone] (cyclo(FIII))
2.26 µM | 0.0204 µM | CC[C@H](C)[C@@H]1NC(=O)[C@H](Cc2ccccc2)NC(=O)[C@H]([C@H](CS(=O)(=O)O)C(C)=O)NC(=O)[C@H]([C@@H](C)CC)NC1=O [(S)-2-((2S,5S,8S,11S)-5-benzyl-8,11-di-sec-butyl-3,6,9,12-tetraoxo-1,4,7,10-tetraazacyclododecan-2-yl)-3-oxobutane-1-sulfonic acid]
0.542 µM | 0.0111 µM | CC(C)[C@@H]1NC(=O)[C@H](Cc2ccccc2)NC(=O)[C@H]([C@H](C)[C@@H](C)O)NC(=O)[C@H](C(C)C)NC1=O [(3S,6S,9S,12S)-3-benzyl-6-((2S,3R)-3-hydroxybutan-2-yl)-9,12-diisopropyl-1,4,7,10-tetraazacyclododecane-2,5,8,11-tetraone]
0.45 µM | – | CC[C@H](C)[C@@H]1NC(=O)[C@H](C(C)C)NC(=O)[C@H](Cc2ccccc2)NC(=O)[C@H]([C@H](C)[C@@H](C)O)NC1=O [(3S,6S,9S,12S)-3-benzyl-9-sec-butyl-6-((2S,3R)-3-hydroxybutan-2-yl)-12-isopropyl-1,4,7,10-tetraazacyclododecane-2,5,8,11-tetraone]
